Assay results reported in paper PMC6646369, “A new bioavailable fenretinide formulation with antiproliferative, antimetabolic, and cytotoxic effects on solid tumors” (Cell Death & Disease, 2019).
Values after ≈ are worked out from the molar mass of the structure shown.

Legend:
[1] = Plasma pharmacokinetics of fenretinide in mice; format: in vivo, CD1 female mice
Protocol: The experiments were performed in CD1 female mice, 7 weeks of age, (body weight 25 ± 2 g) obtained from Envigo RMS SrL (Udine, Italy). Mice were maintained under specific-pathogen-free conditions with constant temperature and humidity, according to the institutional guidelines of the Istituto Superiore di Sanità Animal Care Committee. Animal experimentation was conducted in conformance with the following laws, regulations, and policies governing the care and use of laboratory animals: Italian Governing Law (D. l. 26/2014; Authorization n.19/2008-A issued March 6, 2008 by the Ministry of Health). The pharmacokinetics of NanoFEN, administered by oral or intravenous route, was investigated in mice receiving the formulation at doses corresponding to 5 mg/kg of fenretinide. The intravenous administration was carried out by injection in the tail vein of an intravenous bolus of NanoFEN dissolved in water or PureFEN suspended in a mixture of ethanol 10 % in saline as a comparison. For the oral administration the mice were gavaged the with NanoFEN dissolved in water or with the reconstituted content of the NCI capules, i.e., fenretinide (100 mg) in corn oil (704 mg) and Polysorbate 80 (60 mg) as a comparison. After the intravenous or oral treatments, a series of blood samples were taken at 15 and 30 min and at 1, 2, 4, 8, 10, 24 and 48 h. Blood was collected in heparinized tubes from the retro-orbital plexus of the mice under isoflurane anesthesia. To obtain plasma, blood samples were centrifuged at 4000 rpm for 10 min at 4 °C. The samples were stored at −20 °C until analysis. The total concentration of fenretinide in plasma of mice was determined according to a method previously described. Briefly, aliquot of 200 μl of each plasma sample was added to 400 μl of Acetonitrile (CH3CN) containing 125 μg/mL Butylated hydroxytoluene (BHT), and the mixture was vortexed and centrifuged to pellet the precipitated proteins. The recovered supernatants were analysed on a liquid chromatograph (Perkin-Elmer, Norwall, CT) fitted with a C18 (50 mm × 2.0 mm, 5 μm) reverse-phase column and a C18 precolumn (Perkin-Elmer, Milan, Italy). The mobile phase consisted of CH3CN:H2O:CH3COOH (75:2:2, v:v:v) delivered at a flow rate of 2 mL/min. Detection was carried out with a Perkin-Elmer LC95 absorbance detector at 362 nm. N-(4-ethoxyphenyl)-retinamide (EPR) was used as internal standard. For the quantitative evaluation, reference standard curves were set up in control mouse plasma with different known amounts of NanoFEN or PureFEN. The measured fenretinide concentration-vs-time data were elaborated by non-compartmental analysis (WinNonLin software v3) to obtain the main pharmacokinetic parameters of NanoFEN.

[2] = Aqueous solubility of fenretinide (saturation in water, spectrophotometric at 360 nm); format: physicochemical; details: water at 25 °C; read-out: Solubility in H2O
Protocol: The first step of NanoFEN preparation involved fenretinide salification to raise its aqueous solubility to the extent required for complexation with cyclodextrins. […] The complex was analyzed by ^1H-NMR to detect the presence of chemical shift changes with respect to the free drug as indicators of fenretinide inclusion into the cyclodextrin hydrophobic cavity. […] The ^1H-NMR spectra were recorded by an Inova 600 MHz High Resolution NMR Spectrometer. The amount of fenretinide incorporated into the complex was spectrophotometrically determined in solutions obtained by dissolving known amounts of the solid complex in a water:ethanol (1:1, v-v) mixture with the aim to dissociate the drug from the complex and maintain its solubilization in the aqueous phase in the presence of ethanol. The hydro-alcoholic solutions were analyzed for their fenretinide content at the maximum wavelength of the fenretinide absorption (360 nm). The aqueous solubility of fenretinide complexed with 2-hydroxypropyl-β-cyclodextrin was measured in comparison with the pure drug. […] After filtration the saturated solutions were spectrophotometrically analysed at 360 nm for their fenretinide content.

[3] = mouse, iv, CD1 female mice, 5 mg/Kg fenretinide, plasma
[4] = mouse, plasma, iv, CD1 female mice, 5 mg/Kg fenretinide

**Q.** Which results are given for `CC1=C(/C=C/C(C)=C/C=C/C(C)=C/C(=O)Nc2ccc(O)cc2)C(C)(C)CCC1` [PureFEN, N-(4-Hydroxyphenyl) retinamide]?
**A.** HL ([1]; CD1 female mice, 5 mg/Kg fenretinide, i.v.): 7.87 h; AUC ([1]; female, CD1, mouse, iv, Fig. 1e, single administration of 5 mg/kg, plasma): 6570 ng·h/mL; AUC(0-inf) [1, 3]: 6570 ng·h/mL; AUC(0-t) [1, 3]: 6420 ng·h/mL; Cmax [1, 3]: 4130 ng/mL; Vd [1, 4]: 6.52 L/kg; clearance [1, 4]: 9.57 mL/min/kg; k el ([1]; mouse, plasma, iv, CD1 female mice, 5 mg/Kg fenretinide, i.v., read-out: Ke (converted)): 2.44e-05 s⁻¹; solubility at 12 h [2]: 1.71 µg/mL (≈ 4.37 µM)
